We go through 1 compound from patent US20250129045A1, “SMALL MOLECULE PIM AND MTOR KINASE INHIBITOR AND METHODS OF USE THEREOF” (Arizona Board of Regents on Behalf of the University of …, priority 2022, published 2025).

SMILES strings stand for the structures. “Also recorded” adds a separate entry of the source.

The subject of this experiment is PC3-LN4 cells. The experiment is described as follows: P-body (PB) number in PC3-LN4 GFP-EDC3 cells. The class given is cell-based, human. The settings on record: 6 h. How it is done:
FIGS. 7A-7I show inhibition of VBT5445 (VBT) on Pim1 and EDC3 binding and phosphorylation. FIG. 7A: In vitro co-precipitation (Co-PPT) assay was performed with recombinant EDC3 and biotinylated Pim1 using Streptavidin beads with increasing concentrations of the Pim inhibitor VBT5445 (VBT). FIG. 7B: Kinase assays were performed with recombinant EDC3 and Pim1 with increasing concentrations of VBT. FIG. 7C: Cell lysates from PC3-LN4 cells cultured with DMSO, 10 μM VBT, 3 μM AZD5363 (AKTi) and the combination for 6 hrs were subjected to western blotting (WB). […] WBs were performed using the indicated antibodies. FIG. 7E: PC3-LN4 cells were seeded into 48 well plate and incubated with either DMSO, VBT, AZD5363 or the combination, for 4.5 days. A real-time imaging system (IncuCyte™) was used to measure cell proliferation using a non-label cell monolayer confluence approach. FIG. 7F-7H: GFP image in PC3 LN4 GFP EDC3 expressing cells treated with PIMi: VBT (5 μM) and VBT (5 μM)+AZD5363 (3 μM) for 6 hrs.
To measure PB numbers, PC3-LN4 PCa cells containing a CRISPR/Cas total knock-out of EDC3 were stably transduced with GFP-EDC3. When localized in PBs, GFP spots could be quantified. PBs were quantified at the University of Colorado Center for Drug Discovery using an Opera Phenix Plus high content screening system (PerkinElmer) Perkin Elmer G3 robotic system after drug treatment. Assays were carried out in quadruplicate and the mean number of PBs per cell and cell area calculated. An example of this assay is shown using […] buffered saline (HBSS) to induce PB formation.
Immunofluorescence: Immunofluorescence (IF) staining was performed on PC3-LN4 cells stably expressing EDC3-GFP. 1×10^4 cells were seeded in each chamber of an 8 well chamber slide (Nunc Lab-Tek II Chamber Slide System, Life Technologies) and cultured for 48 h. After attaching to the chamber slides cells were treated with DMSO, VB-5445 ([…]), AZD5363 (3 μM), or the combination for 6 h. Cells were then fixed with 4% paraformaldehyde in PBS for 15 min and subsequently permeabilized with 0.2% Triton X-100 in PBS. Cells were stained with diluted DAPI (1:4000) in 1% nor-mal goat serum in PBS. Cells were mounted with Prolong Gold Antifade mounting medium (Molecular Probes).

`O=c1c(CNCc2cc(Br)ccn2)cc2ccc(Cl)cc2n1CCOc1ccccc1` [GRG-1-34, 3-((((4-bromopyridin-2-yl)methyl)amino)methyl)-7-chloro-1-(2-phenoxyethyl) quinolin-2 (1H)-one]: the “number of P-bodies, with AKT inhibitor AZD5363 added” value (combination with AZD5363 (3 μM), listed as VBT 1-34) is listed as “further increased the number of P-bodies; also recorded: further increases P-bodies”. The “number of P-bodies” value (compound alone) is on record as “increases the number of P-bodies”.
